Calls of active or inactive are those of the source. No rule for the calls is given here.
These compounds were tested against Bcl-2-related protein A1 (Homo sapiens) (UniProt Q16548) (assay: Bfl-1/Bim complex disruptors – biochemical, multiplexed, bead-based flow cytometry, dose response (AID 1320; also: test concentration not given here)). Details: Bim peptide-Bfl-1 binding, fluorescence.
Sequence of Bcl-2-related protein A1 (Homo sapiens) (Q16548 whole entry, looked up): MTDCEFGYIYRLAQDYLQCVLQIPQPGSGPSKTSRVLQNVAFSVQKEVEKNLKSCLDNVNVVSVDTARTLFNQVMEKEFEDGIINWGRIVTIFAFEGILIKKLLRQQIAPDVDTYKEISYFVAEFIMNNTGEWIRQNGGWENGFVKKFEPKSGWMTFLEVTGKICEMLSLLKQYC

SMILES | percent span (inhibition)
COc1ccc(C2CN(C)CC2C(=O)c2ccc(F)cc2)cc1Cl (stereo not given) | inactive
CC1(C)CC(NC(=O)COc2ccc([N+](=O)[O-])cc2)CC(C)(C)N1 | inactive
CSc1ccccc1NC(=O)CN(C)CC(=O)Nc1ccc(N2CCOCC2)cc1 | inactive
Cc1ccc(C(=O)N(CCCN(C)C)c2nc3ccc(Cl)cc3s2)cc1C | inactive
O=C(NCc1ccccc1)C(=O)Nc1nc(C23CC4CC(CC(C4)C2)C3)cs1 | inactive
CCc1nn2cc(C(=O)c3cc(C)ccc3O)cnc2c1-c1ccc(F)cc1 | inactive
Cc1ccc(-c2cc(C(=O)Nc3cc(C(=O)O)ccc3C)c3ccccc3n2)cc1 | inactive
COc1ccc(N2C(=O)C(Cl)=C(Nc3ccccc3O)C2=O)cc1 | inactive
Nc1ccc(Nc2nc(-c3ccncc3)cs2)cc1 | inactive
O=[N+]([O-])c1cccc(S(=O)(=O)NCC2CCCO2)c1 (stereo not given) | inactive
CCOc1ccc(NCc2ccccc2OCc2cccc(F)c2)cc1 | inactive
COc1ccc2nc(NC(=O)c3ccc(-c4cccc([N+](=O)[O-])c4)o3)sc2c1 | inactive
C=CCSc1nc(N)c2c(C)c(C)sc2n1 | inactive
CN=C(NC1CCCCC1)c1ccc(Cl)cc1 | inactive
O=C1NCCN1C(=O)N(c1ccccc1)c1ccccc1 | inactive
COc1cc(C=Nc2cccc(C)c2)c(O)c([N+](=O)[O-])c1 | inactive
COc1ccc(-c2csc(NC(=O)/C(N=Nc3ccccc3)=C(\C)O)n2)cc1 | inactive
CCN(CC)c1ccc(NC(=O)c2ccc(=O)[nH]c2)cc1S(=O)(=O)Nc1ccccc1OC | inactive

SMILES | percent span (inhibition)
COc1ccc(NC(=O)/C(Cl)=C(/Cl)S(=O)Cc2ccccc2)cn1 (stereo not given) | inactive
O=C(COCC(=O)NCc1ccccc1)NCc1ccccc1 | inactive
O=C1c2ccccc2C(=O)c2cc(S(=O)(=O)Nc3ccccc3)ccc21 | inactive
CC(C)COC(=O)/C(C#N)=C/c1cn(Cc2ccccc2)c2ccccc12 | inactive
COc1cc(NC(=S)NC(=O)c2cc(C)cc(C)c2)ccc1NC(=O)c1cccs1 | inactive
COc1cc(/C=N/Nc2nc3c(c(=O)n(C)c(=O)n3C)n2Cc2ccccc2)ccc1OC(=O)c1ccco1 | inactive
OC(CNC1CCCCC1)COCCOc1ccc(Br)cc1 (stereo not given) | inactive
S=C1NC2=C(CCC/C2=C\c2ccccc2)C(c2ccccc2)N1 (stereo not given) | inactive
Cc1ccc(NS(=O)(=O)c2cc(NC(=O)c3ccc4c(c3)NC(=O)CS4)ccc2C)c(C)c1 | inactive
Cc1ccc(Nc2nc(-c3c(C)nc4ncccn34)cs2)cc1 | inactive
COc1ccc(S(=O)(=O)NCCSc2ccc(Cl)cc2)cc1OC | inactive
COc1ccc(C)cc1Nc1ccc(C(=O)O)cc1[N+](=O)[O-] | inactive
COC(=O)CSc1nccc(-c2cccs2)n1 | inactive
Cc1cc(NC(=O)CCCC(=O)NCc2ccccc2)no1 | inactive
COc1ccc(-n2c(=O)c3ccccc3c3ccccc3c2=O)c(OC)c1 | inactive
CCOC(=O)c1c2c3c(cccc3[nH]c1=O)C(=O)c1ccccc1-2 | inactive
Cc1ccc(/C=C2\CCCC3=C2NC(=S)NC3c2ccc(C)cc2)cc1 (stereo not given) | inactive

From PubChem BioAssay AID1320 (NMMLSC, 2008)
